For the assay, the target named is Glycogen synthase kinase-3 alpha (Homo sapiens) (UniProt P49840). The assay can be described thus: concentration-response blocking of human GSK3A – biochemical, luminescence, cell-free homogeneous, retest, dose response (AID 463203). As to conditions: GSK-3 alpha enzyme, ADP-Glo luminescence, 60 min. In general terms: ADP-Glo first removes unused ATP, then detects ADP through luciferase.

Molecules are shown by their SMILES. The source made the active and inactive calls.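 The calls were made as follows: active = more than half of replicate measurements showing over 20% loss of kinase signal relative to plate controls; inconclusive = some but at most half of replicates over 20% loss; inactive = no replicate over 20% signal loss.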

Our source for the AC50 values is PubChem BioAssay AID463203 (Broad Institute, 2010).

Sequence of Glycogen synthase kinase-3 alpha (Homo sapiens) (P49840 whole entry, looked up): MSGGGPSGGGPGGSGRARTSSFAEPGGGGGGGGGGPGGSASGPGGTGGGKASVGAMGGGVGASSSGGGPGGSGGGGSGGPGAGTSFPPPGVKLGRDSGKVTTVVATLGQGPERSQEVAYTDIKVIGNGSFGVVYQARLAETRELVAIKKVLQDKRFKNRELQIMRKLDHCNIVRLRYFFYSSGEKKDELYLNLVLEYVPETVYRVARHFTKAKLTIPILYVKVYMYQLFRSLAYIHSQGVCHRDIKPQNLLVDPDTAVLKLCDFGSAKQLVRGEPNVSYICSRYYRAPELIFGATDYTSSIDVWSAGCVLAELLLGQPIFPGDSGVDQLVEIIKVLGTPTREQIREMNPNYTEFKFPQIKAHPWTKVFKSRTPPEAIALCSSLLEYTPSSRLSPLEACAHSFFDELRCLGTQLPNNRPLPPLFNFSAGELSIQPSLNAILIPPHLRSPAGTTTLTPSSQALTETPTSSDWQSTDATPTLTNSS

One may read the AC50 as the midpoint of the concentration-response curve, whichever way the signal moves. Take `Cc1ccc(C(=O)N2NC(c3ccccc3F)C3C(=O)N(c4cccc(C)c4)C(=O)C32)cc1` (stereo unspecified): the AC50 was > 30 µM (inactive).
The value for `Cc1cccc(Nc2ncccc2C(=O)O)c1C` was > 30 µM (inactive); that for `COc1cc(/C=C2\Oc3ccc(C#Cc4ccc(O)cc4)cc3C2=O)cc(OC)c1` was > 30 µM (inactive); that for `N#Cc1cc(-c2cccc(Cl)c2)c[nH]c1=O` was > 30 µM (inactive).
In the case of `COC(=O)C1=C(C)N(CC(C)C)C(=O)/C1=C\c1cccs1` it was > 30 µM (inactive).
Regarding `Cc1ccc(N(Cc2ccc([N+](=O)[O-])cc2)C(=O)c2ccco2)cc1`, the AC50 was > 30 µM (inactive).
The value for `CC(=O)c1sc(NC(=O)c2ccc3c(c2)OCO3)nc1C` was > 30 µM (inactive); that for `COc1ccc(/C=N/NC(=O)CSCc2ccc([N+](=O)[O-])cc2)cc1OC` was > 30 µM (inactive).
In the case of `N/C(=N\OC(=O)c1ccc2ccccc2c1)c1cccc([N+](=O)[O-])c1` it was > 30 µM (inactive).
As for `COC(=O)C1=C(C)NC(=O)NC1c1ccc2c(c1)OCO2` (stereo unspecified), the AC50 is > 30 µM (inactive).
With `CC1CC(=O)c2cnc(NCC3CCCO3)nc2C1` (stereo unspecified), the AC50 was > 30 µM (inactive).
The value for `CCc1ccc(N2CSC3=C(C#N)C(c4cccs4)CC(=O)N3C2)cc1` (stereo unspecified) was 28.8 µM; that for `COc1cccc2cc(C(=O)NCc3ccco3)c(=O)oc12` was > 30 µM (inactive).
The value for `O=C(CCSc1nc(-c2ccc3c(c2)OCO3)cc(C(F)(F)F)n1)NCc1ccco1` was > 30 µM (inactive); that for `Cc1ccc(S(=O)(=O)CCSc2n[nH]c(=O)n2-c2ccccc2)cc1` was 11.8 µM; that for `O=c1c(O[C@@H]2O[C@H](CO)[C@@H](O)[C@H](O)[C@H]2O)c(-c2ccc(O)cc2)oc2cc(O)cc(O)c12` was 30.4 µM.
The value for `CCN1C(=O)/C(=C\c2cccs2)C(C(=O)OC)=C1C` was > 30 µM (inactive); that for `Cc1ccc(S(=O)(=O)N2CCN(C(=O)n3ccnc3)CC2)cc1` was > 30 µM (inactive); that for `CCn1c(SCC(=O)Nc2nc3ccc(OC)cc3s2)nnc1-c1ccoc1C` was 5.81 µM.
In the case of `COc1cccc(NC(=O)c2nnn(Cc3ccc(Br)cc3F)c2N)c1`, the AC50 is 11.1 µM.
In the case of `COc1ccc(Br)cc1C(=O)Nc1ccc(NC(=O)c2ccco2)cc1` it was > 30 µM (inactive); in that of `O=c1c2ccccc2[nH]c2ccccc12`, > 30 µM (inactive).
In the case of `COC(=O)c1cc2cc(Cl)ccc2nc1SC` it was > 30 µM (inactive).
Regarding `Cc1ccc(N=Nc2c(O)[nH]c3ccc(F)cc23)cc1`, the AC50 was > 30 µM (inactive).
For the molecule `COc1ccc(C2CC(=O)N3CN(c4ccccc4F)CSC3=C2C#N)cc1OC` (stereo unspecified), the AC50 was > 30 µM (inactive).
The value for `C=CCNc1nc(N)c(C(=O)c2ccc3c(c2)OCO3)s1` was 0.211 µM; that for `O=c1[nH]c(=S)n(C2CC2)c(O)c1C=NCc1cccnc1` was 28.2 µM.
The value for `C=C(C)CSc1nnc([C@@H](N)Cc2c[nH]c3ccccc23)o1` was > 30 µM (inactive); that for `CCCC(=O)NNC(=O)c1c(O)c2ccccc2[nH]c1=O` was > 30 µM (inactive).
The value for `Cc1c(CN(C)C)c2c(n1Cc1ccccc1)C(=O)c1ccccc1-2` was > 30 µM (inactive); that for `CC(C)(C)N1C(=O)c2ccc(C(=O)O)cc2C1=O` was > 30 µM (inactive); that for `Cc1ccc(C)c(N2CC(C(=O)Nc3nccs3)CC2=O)c1` (stereo unspecified) was > 30 µM (inactive).
Regarding `Cc1ccc(NC(=O)c2cc(-n3cnnc3)ccc2Cl)cc1`, the AC50 was > 30 µM (inactive).
In the case of `CCOC(=O)c1c(NC(=O)CN2C(=O)NC3(CCC(C)CC3)C2=O)sc(C)c1CC` (stereo unspecified) it was > 30 µM (inactive).
Turning to `Cc1csc(NC(=O)C2CCCN2C(=O)OCC(C)C)n1` (stereo unspecified), the AC50 was > 30 µM (inactive).
In the case of `CN(C)c1ncnc2c1ncn2C1OC(CO)C(O)C1O` (stereo unspecified) it was > 30 µM (inactive).
In the case of `COc1cc(C2c3sc(=O)[nH]c3SC3C(=O)N(c4ccc(C)cc4)C(=O)C32)ccc1O` (stereo unspecified) it was > 30 µM (inactive); in that of `CC(=O)Nc1ccc(C2(c3ccc(NC(C)=O)cc3)NC(=O)c3ccccc32)cc1`, > 30 µM (inactive); in that of `N#Cc1c(-c2ccccc2Cl)c2c([nH]c1=O)-c1ccccc1OC2`, > 30 µM (inactive).
The value for `Cc1ccc(S(=O)(=O)N(CC(O)CN2CCCC2)c2ccccc2)cc1` (stereo unspecified) was > 30 µM (inactive); that for `O=C(OCC1OC2OC3(CCCCC3)OC2C2OC3(CCCCC3)OC12)c1ccccc1` (stereo unspecified) was > 30 µM (inactive).
Regarding `COc1cc(OC)cc(C2C(C#N)=C(N)Oc3n[nH]c(-c4cccnc4)c32)c1` (stereo unspecified), the AC50 was > 30 µM (inactive).
In the case of `CC1(C)Oc2ccc3ccc(=O)oc3c2-c2cn[nH]c21` it was 7.97 µM.
As to `NC(=O)c1cc([N+](=O)[O-])ccc1NCc1cccc([N+](=O)[O-])c1`, the AC50 was 3.49 µM.
The value for `CCc1ccc(C2CC(c3cccc(Cl)c3)n3nc(N)nc3N2)cc1` (stereo unspecified) was > 30 µM (inactive); that for `O=C(c1ccco1)N(Cc1ccc([N+](=O)[O-])cc1)c1ccc(Cl)cc1` was > 30 µM (inactive); that for `CC(=O)c1cc(-c2ccc(F)cc2)n(CCC(=O)Nc2cccc(C)n2)c1C` was > 30 µM (inactive).
On to `CN(C)c1ccc(Nc2nc(N)c3ccccc3n2)cc1`, for which the AC50 was 18.2 µM.
For the molecule `CC1=C(C(=O)OC2CCCCC2)C(c2cccs2)n2c(nc3ccccc32)N1` (stereo unspecified), the AC50 was > 30 µM (inactive).
The value for `CC(=O)N1CCN(c2ccccc2NC(=O)c2ccc(Br)o2)CC1` was 10.3 µM; that for `CC(C)(C)NC(=O)CSc1ncccc1-c1nc2ccccc2[nH]1` was > 30 µM (inactive).
In the case of `CC1(C)Cc2c(sc3c2C2=NCCN2C=N3)CO1` it was > 30 µM (inactive); in that of `Fc1ccc(-c2nnc3ccc(N4CCCC4)nn23)cc1`, 5.64 µM; in that of `O=c1[nH]ncc(N/N=C\c2cccs2)c1Cl`, 6.07 µM.
For the molecule `COC1(OC)N=C(N)C2(C#N)C(c3ccc4c(c3)OCO4)C12C#N` (stereo unspecified), the half-maximal activity concentration (AC50) was 20.1 µM.
The value for `CCC(=O)C1CCCN(C(=O)CCc2nnc(-c3ccc4c(c3)OCO4)o2)C1` (stereo unspecified) was > 30 µM (inactive); that for `O=c1cc(-c2ccccc2)[nH]n1-c1ccc([N+](=O)[O-])cc1` was > 30 µM (inactive); that for `O=[N+]([O-])c1ccc(NC2CCCC2)cc1` was > 30 µM (inactive).
The value for `COc1ccc(OC)c(C2CC(=O)Nc3n[nH]c(-c4ccccc4)c32)c1` (stereo unspecified) was > 30 µM (inactive).
The value for `FC(F)(F)c1cnc(N/N=C/c2ccncc2)c(Cl)c1` was > 30 µM (inactive); that for `Fc1ccccc1CSc1nnc(-c2cccnc2)o1` was > 30 µM (inactive); that for `CN(c1nc2nonc2nc1NC1CC1)C1CCOC1` (stereo unspecified) was > 30 µM (inactive).
As for `CCOC(=O)N1CCC(N2CCN(S(=O)(=O)c3ccc(C)cc3)CC2)CC1`, the AC50 was > 30 µM (inactive).
In the case of `CCOC(=O)CN1CC23C=CC(O2)C(C(=O)O)C3C1=O` (stereo unspecified), the AC50 was > 30 µM (inactive).
In the case of `COc1ccccc1NC(=O)Nc1ccccc1Br`, the AC50 was > 30 µM (inactive).
Regarding `O=C1c2ccccc2-c2onc3ccc(NCc4ccco4)c1c23`, the AC50 is > 30 µM (inactive).
In the case of `COc1ccc(COC(=O)C2=C(C)NC(=O)NC2c2ccc(OC)c(OC)c2)cc1` (stereo unspecified) it was > 30 µM (inactive).
The value for `CCOC(=O)c1nc2sc3c(c2c(=O)[nH]1)CCC(C)C3` (stereo unspecified) was > 30 µM (inactive); that for `O=C(Nc1ccccc1C(=O)N1CCOCC1)c1cccnc1` was > 30 µM (inactive); that for `CC1(C)CC(=O)C(C=Nc2ccc(O)cc2)=C(O)C1` was > 30 µM (inactive).
In the case of `CC1(C)Cc2cccc(C(=O)Nc3ccncc3)c2O1` it was 5.8 µM; in that of `CCOc1ccc(-n2c(O)c(C=NCCCn3ccnc3)c(=O)[nH]c2=O)cc1`, 22.4 µM.
Regarding `CC(=O)c1c(O)ccc2c(-c3ccccc3)cc(=O)oc12`, the AC50 was > 30 µM (inactive).
With `NS(=O)(=O)c1ccc(-c2ccc(/C=C3\SC(=O)NC3=O)o2)cc1`, the AC50 was 5.29 µM.
In the case of `CN1CCN(c2nc(NCc3ccco3)nc(N)c2[N+](=O)[O-])CC1`, the AC50 is > 30 µM (inactive).
The value for `COCCCNc1c2c(nc3nnnn13)CCCC2` was > 30 µM (inactive); that for `Nc1cc(C(F)(F)F)ccc1C(=O)O` was > 30 µM (inactive); that for `CC(C)c1c(C(=O)N/N=C/c2ccncc2)nnn1-c1nonc1N` was > 30 µM (inactive).
The value for `COC(=O)[C@H]1[C@H](CCc2ccccc2)NC(=O)N(Cc2ccccc2)[C@@H]1C` was > 30 µM (inactive); that for `CC(=O)Nc1cccc(-c2cnc(N)c(C(=O)c3cccnc3)n2)c1` was 0.105 µM.
Turning to `CCN1CCN(c2nc(N)c([N+](=O)[O-])c(Nc3ccc(C)cc3)n2)CC1`, the AC50 is > 30 µM (inactive).
The value for `Cc1ccc(NC(=O)CSCc2nc3c(nnn3Cc3ccc(F)cc3)c(=O)[nH]2)c(C)c1` was > 30 µM (inactive); that for `CC(=O)Nc1ccc(S(=O)(=O)NC(C)c2ccncc2)cc1` (stereo unspecified) was > 30 µM (inactive); that for `CC1(C)CC(=O)C2=C(C1)Nc1[nH]n(-c3ccccc3)c(=O)c1C2c1ccc2c(c1)OCO2` (stereo unspecified) was > 30 µM (inactive).
Turning to `c1ccc(-c2noc(CSc3nnnn3-c3ccccc3)n2)cc1`, the AC50 was > 30 µM (inactive).
The value for `Cc1nccnc1Sc1ccccc1` was > 30 µM (inactive).
Consider `Cc1ccc(/C=N/NC(=O)c2nnn(-c3nonc3N)c2CN(C)C)o1`, for which the AC50 is > 30 µM (inactive).
The value for `COc1ccc(C(=O)NCC(=O)N/N=C/C=C/c2ccccc2)cc1OC` was > 30 µM (inactive).
The value for `COc1ccc(Br)cc1C(=O)Nc1cccc(NC(=O)c2ccco2)c1` was > 30 µM (inactive); that for `N#CC1=C(SCC(=O)c2ccccc2)NC2=C(C(=O)CCC2)C1c1ccco1` (stereo unspecified) was > 30 µM (inactive).
The value for `c1ccc(N2CCN(c3nc4ccccc4n4cnnc34)CC2)cc1` was > 30 µM (inactive).
